What was measured:
hCOX-1 = hCOX-1 (Homo sapiens, UniProt P23219); details: enzyme specific activity in the presence of arachidonic acid 100 µM and the inhibitor
Protocol: (§1) Functional analysis of ovine and human COX-1 catalytic activity was determined by monitoring O2 consumption by using an Oxytherm electrode unit (Hansatech), in the presence of arachidonic acid and different inhibitors. The instrument is equipped with a Clark-type oxygen electrode to monitor the dissolved oxygen concentration in a sealed measurement chamber over the time. Oxygen consumption was measured at 37 °C directly in a 1000 µL reaction vessel. Briefly, it follows the description of a typical assay: Oxygraph buffer (the opportune volume is adjusted to 1000 µL of final volume according to the volume of the protein), 5 µM hemin (1 µL), 100 µM arachidonic acid (20 µL) and inhibitor (10 µL) at the opportune concentrations.
(§2) Oxygen consumption determination (μmol/ml O2) started after the addition of the ovine or human COX-1/Sf9 sonicated pellet (C = 2.6 mg/ml) to the mixture containing Oxygraph buffer, arachidonic acid and test compounds at the opportune concentrations. Assay mixture was allowed to equilibrate in the reaction vessel at 37 °C for several minutes until steady baseline was recorded. Uninfected Sf9 sonicated cells were used as a negative control. Stock solutions were prepared in a minimum volume of vehicle (DMSO).

oCOX-1 = biological target: T1, oCOX-1 (Ovis aries, UniProt P05979); details: enzyme specific activity in the presence of arachidonic acid 100 µM and the inhibitor
T1 sequence (P05979 25-600): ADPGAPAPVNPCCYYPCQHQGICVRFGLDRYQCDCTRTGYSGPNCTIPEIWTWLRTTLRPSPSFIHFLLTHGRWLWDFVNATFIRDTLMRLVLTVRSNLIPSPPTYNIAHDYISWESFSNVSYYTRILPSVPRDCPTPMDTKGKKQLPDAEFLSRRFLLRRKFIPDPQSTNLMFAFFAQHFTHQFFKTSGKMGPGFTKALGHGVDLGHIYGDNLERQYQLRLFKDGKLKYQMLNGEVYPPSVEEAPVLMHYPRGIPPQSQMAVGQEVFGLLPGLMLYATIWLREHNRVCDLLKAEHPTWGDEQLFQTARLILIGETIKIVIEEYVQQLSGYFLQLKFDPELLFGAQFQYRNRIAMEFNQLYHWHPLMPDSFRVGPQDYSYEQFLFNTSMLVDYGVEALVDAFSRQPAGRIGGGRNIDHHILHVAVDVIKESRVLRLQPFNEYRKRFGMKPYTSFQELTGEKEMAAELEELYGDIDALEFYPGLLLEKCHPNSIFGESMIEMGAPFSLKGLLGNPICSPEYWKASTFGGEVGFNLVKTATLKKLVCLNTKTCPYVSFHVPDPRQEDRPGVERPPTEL
Protocol: as §1, §2

hCOX-1, sequence (P23219 24-599): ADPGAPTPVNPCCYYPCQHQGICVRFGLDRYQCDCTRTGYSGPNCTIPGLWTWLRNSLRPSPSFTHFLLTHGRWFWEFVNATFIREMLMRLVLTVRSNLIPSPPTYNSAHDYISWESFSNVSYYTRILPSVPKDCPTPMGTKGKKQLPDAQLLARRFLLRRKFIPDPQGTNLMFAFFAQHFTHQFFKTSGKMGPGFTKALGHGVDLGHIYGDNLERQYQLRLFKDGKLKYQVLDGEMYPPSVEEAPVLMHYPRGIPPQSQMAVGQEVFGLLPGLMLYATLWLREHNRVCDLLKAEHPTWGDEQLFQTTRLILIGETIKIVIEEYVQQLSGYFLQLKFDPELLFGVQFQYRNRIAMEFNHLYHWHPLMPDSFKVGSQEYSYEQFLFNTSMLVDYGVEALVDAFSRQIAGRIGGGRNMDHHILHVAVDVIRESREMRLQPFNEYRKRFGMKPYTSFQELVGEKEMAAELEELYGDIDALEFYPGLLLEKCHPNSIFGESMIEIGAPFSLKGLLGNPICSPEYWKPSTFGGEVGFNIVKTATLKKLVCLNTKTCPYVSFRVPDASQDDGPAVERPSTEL

`COc1ccc(-c2noc(CC(=O)O)c2-c2ccc(OC)cc2)cc1` [mofezolac] was tested. Which “Specific activity hCOX-1” value (hCOX-1) did it give?
The value was 4.5 µmol/min/mg.

And the “Specific activity oCOX-1” value (oCOX-1)?
Its value is 3.5 µmol/min/mg.
